Assay results as given in ChEMBL document CHEMBL1201862, “PubChem BioAssay data set” (2004).
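Growth conditions: 96-well plates. Treatment: test compound, 48 hours, 5 concentrations. Analysis: linear interpolation between bracketing concentrations; unreached endpoints set to highest concentration. The concentration for 50% growth inhibition is given as GI50.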 Active and inactive are the calls of the source. No stated cut-off is given here; in the data, active = GI50 up to about 1.1 µM and inactive = higher.

Experiments:
Experiment in all cases: NCI-60 cell line screen, 48 h
[1] = system: 786-0
[2] = system: A498
[3] = system: ACHN
[4] = system: BT-549
[5] = system: HOP-92
[6] = system: Hs-578T
[7] = system: LOX IMVI
[8] = system: M14
[9] = system: MCF7
[10] = system: MOLT-4
[11] = system: NCI-H522
[12] = system: PC-3
[13] = system: SF-268
[14] = system: SK-MEL-5
[15] = system: SK-OV-3
[16] = system: SNB-19
[17] = system: SNB-75
[18] = system: SW-620
[19] = system: U-251
[20] = system: K562

Compound | GI50 [1] | GI50 [2] | GI50 [3] | GI50 [4] | GI50 [5] | GI50 [6] | GI50 [7] | GI50 [8] | GI50 [9] | GI50 [10] | GI50 [11] | GI50 [12] | GI50 [13] | GI50 [14] | GI50 [15] | GI50 [16] | GI50 [17] | GI50 [18] | GI50 [19] | GI50 [20]
C=C1C(C(=O)OC)[C@H]1C(=O)OC (some centres not stated) | > 100 µM (inactive) | > 100 µM (inactive) | > 100 µM (inactive) | > 100 µM (inactive) | > 100 µM (inactive) | > 100 µM (inactive) | > 100 µM (inactive) | > 100 µM (inactive) | > 100 µM (inactive) | > 100 µM (inactive) | > 100 µM (inactive) | > 100 µM (inactive) | > 100 µM (inactive) | > 100 µM (inactive) | > 100 µM (inactive) | > 100 µM (inactive) | > 100 µM (inactive) | > 100 µM (inactive) | > 100 µM (inactive) | –
Cc1ccc(NCC2CC/C(=C\c3ccc(Cl)cc3)C2=O)cc1 (configuration not stated) | 4.12 µM (inactive) | 30.7 µM (inactive) | 10.3 µM (inactive) | 15.3 µM (inactive) | 0.569 µM (active) | 29 µM (inactive) | 6.03 µM (inactive) | 13.4 µM (inactive) | 2.83 µM (inactive) | 3.84 µM (inactive) | 7.38 µM (inactive) | 14.9 µM (inactive) | 18.5 µM (inactive) | 14.5 µM (inactive) | > 100 µM (inactive) | 21.2 µM (inactive) | > 100 µM (inactive) | 3.67 µM (inactive) | 17 µM (inactive) | 1.74 µM (inactive)
COc1cc(Nc2cnc3cc(F)c(F)cc3n2)cc(OC)c1 | 37.9 µM (inactive) | 53.6 µM (inactive) | > 100 µM (inactive) | 33.9 µM (inactive) | 25.8 µM (inactive) | 37.7 µM (inactive) | 67.3 µM (inactive) | > 100 µM (inactive) | > 100 µM (inactive) | > 100 µM (inactive) | 11.4 µM (inactive) | > 100 µM (inactive) | 43.7 µM (inactive) | > 100 µM (inactive) | 21.3 µM (inactive) | 26.2 µM (inactive) | 18.9 µM (inactive) | > 100 µM (inactive) | 37.9 µM (inactive) | –
CCC(C)C(NC(=O)C(CCCCN)NC(=O)C(NC(=O)C(CCC(N)=O)NC(=O)C(CCCNC(=N)N)NC(C)=O)C(C)CC)C(=O)NC(Cc1c[nH]c2ccccc12)C(=O)NC(Cc1ccccc1)C(=O)NC(CCC(N)=O)C(=O)NC(CC(N)=O)C(=O)NC(CCCNC(=N)N)C(=O)NC(CCCNC(=N)N)C(=O)NC(CCSC)C(=O)NC(CCCCN)C(=O)NC(Cc1c[nH]c2ccccc12)C(=O)NC(CCCCN)C(=O)NC(CCCCN)C(N)=O (configuration not stated) | 12 µM (inactive) | > 50 µM (inactive) | > 50 µM (inactive) | > 50 µM (inactive) | > 50 µM (inactive) | > 50 µM (inactive) | > 50 µM (inactive) | 17.9 µM (inactive) | 29.8 µM (inactive) | > 50 µM (inactive) | > 50 µM (inactive) | > 50 µM (inactive) | 45.1 µM (inactive) | 22.5 µM (inactive) | 31.7 µM (inactive) | > 50 µM (inactive) | – | > 50 µM (inactive) | 17.8 µM (inactive) | 22.8 µM (inactive)
O=C(/C=c1\oc(=O)/c(=C/C(=O)c2ccc(Cl)cc2)oc1=O)c1ccc(Cl)cc1 | > 100 µM (inactive) | > 100 µM (inactive) | > 100 µM (inactive) | 10.4 µM (inactive) | 43.1 µM (inactive) | 34.2 µM (inactive) | 48.4 µM (inactive) | > 100 µM (inactive) | > 100 µM (inactive) | 23.8 µM (inactive) | 19.7 µM (inactive) | > 100 µM (inactive) | 97.3 µM (inactive) | > 100 µM (inactive) | > 100 µM (inactive) | > 100 µM (inactive) | – | – | > 100 µM (inactive) | > 100 µM (inactive)
COc1ccc(NC(S)=Nc2ccccc2)cc1 | > 100 µM (inactive) | > 100 µM (inactive) | > 100 µM (inactive) | > 100 µM (inactive) | > 100 µM (inactive) | > 100 µM (inactive) | > 100 µM (inactive) | > 100 µM (inactive) | > 100 µM (inactive) | – | > 100 µM (inactive) | > 100 µM (inactive) | > 100 µM (inactive) | > 100 µM (inactive) | > 100 µM (inactive) | > 100 µM (inactive) | > 100 µM (inactive) | > 100 µM (inactive) | > 100 µM (inactive) | > 100 µM (inactive)
C=C(C)C(=O)O[C@H]1[C@H]2[C@H](OC(=O)[C@H]2C)[C@H](O)[C@@H](C)[C@@H]2C=CC(=O)[C@]21C | 2.49 µM (inactive) | 2.69 µM (inactive) | 4.11 µM (inactive) | 3.83 µM (inactive) | 3.66 µM (inactive) | 4.9 µM (inactive) | 2.62 µM (inactive) | 5.97 µM (inactive) | 4.19 µM (inactive) | 3 µM (inactive) | 1.2 µM (inactive) | 4.51 µM (inactive) | 3.4 µM (inactive) | 5.47 µM (inactive) | 5.9 µM (inactive) | 4.93 µM (inactive) | – | 2.72 µM (inactive) | 3.16 µM (inactive) | –
